Columns and labels:
[1] = Binding of PEG-AHPDP derivatives to hydroxyapatite in vitro; details: 37° C., 5 mM sodium phosphate buffer pH 7.2
Method: Hydroxyapatite (Fast Flow, Fluka, 12 mg) was equilibrated in 1 ml of 5 mM sodium phosphate buffer, pH 7.2 for 24 hours at 37° C.

[2] = Binding of PEG(2,000)-α-AHPDP-ω-protein to hydroxyapatite in vitro; details: 37° C., 5 mM sodium phosphate buffer pH 7.2; for adsorption to hydroxyapatite (in words): 1^1/2 hour incubation; for percentage adsorbed to hydroxyapatite: by 1^1/2 hour incubation
Method: Hydroxyapatite (Fast Flow, Fluka, 120 mg) was equilibrated in 1 ml of 5 mM sodium phosphate buffer, pH 7.2 for 24 hours at 37° C. Native lysozyme or the PEG-lysozyme conjugate was mixed with the hydroxyapatite suspension in a 1:1 volume ratio and stirred at 37° C. Samples were taken from the mixture at various time points and analyzed for the percentage of unbound protein or PEG-protein conjugate by gel permeation chromatography. […] All samples had similar protein concentrations.

[3] = in vivo; cited from earlier work
[4] = Excretion study of 125I-labelled PEG derivatives in mice; format: in vivo, Male ICR mice; details: for average % [125I] captured (urine and feces, % of total counts injected): 2 μCi i.v. tail vein, n=6; for radiolabeled compound excreted in the urine: 8 hr collection, share of captured radiolabel
Method: PEG(2,000)-α-L-tyrosine-ω-AHPDP and mPEG(2,000)-α-L-tyrosine were iodinated using a standard chloramine-T procedure (Bolton, Methods Enzymol. 124: 18-29, 1986). In brief, a 15 μL aliquot of PEG(2,000)-α-L-tyrosine-ω-AHPDP or mPEG(2,000)-α-L-tyrosine (2 μg/μL total weight) was mixed with 50 μL of […] phosphate buffer. To this was added 1 mCi of NaI^125 and 10 μL of Chloramine-T (1 μg/μL). The mixture was finger vortexed for 30s followed by addition of 100 μL-Cys (2 µg/µL), followed by another 30s of finger vortexing. The purification was carried out by reverse-phase chromatography. The samples were eluted at 37° C. using a curvilinear gradient of 0.1% trifluroacetic acid (TFA) in acetonitrile (19-63%) versus 0.1% aqueous TFA over 30 min at 1.5 ml.min^−1.
Male ICR mice (20-25 g) were administered either 2 μCi of PEG(2,000)-α-L-tyrosine-ω-AHPDP or mPEG(2,000)-α-L-tyrosine via tail vein injection (100 μL; i.v.). The mice were placed into metabolism cages and urine and feces were collected at the following time points (1, 2, 3, 4, 6, & 8 hr post-injection) (n=6).

## NCCC(O)(P(=O)(O)O)P(=O)(O)O [AHPDP, 3-amino-1-hydroxypropane-1,1-diphosphonic acid, reference compound]
[1]
  adsorption half-life on hydroxyapatite: around 1 min

## Native lysozyme: chicken egg white lysozyme, MW=14,300 Da, used as a model protein [reference compound]
[2]
  adsorption to hydroxyapatite (in words): did not adsorb

## 2-PEGmer: PEG-lysozyme multimer with two PEG(2,000)-α-AHPDP chains, separated by size exclusion [Example 2-PEGmer]
[2]
  percentage adsorbed to hydroxyapatite: 100%

## PEG(5,000)-α-amine-ω-AHPDP
[1]
  adsorption half-life on hydroxyapatite: 45 min

## 1-PEGmer: PEG-lysozyme multimer with one PEG(2,000)-α-AHPDP chain, separated by size exclusion [Example 1-PEGmer]
[2]
  adsorption to hydroxyapatite (in words): limited adsorption

## CC(O)(P(=O)(O)O)P(=O)(O)O [Etidronate]
[3]
  half-life in bone: greater than 90 days

## 3-PEGmer: PEG-lysozyme multimer with three PEG(2,000)-α-AHPDP chains, separated by size exclusion [Example 3-PEGmer]
[2]
  percentage adsorbed to hydroxyapatite: 100%

## PEG(2,000)-α-tyrosine-ω-AHPDP [PEG(2,000)-α-L-tyrosine-ω-AHPDP]
[4]; 8 hour time course
  average % [125I] captured (urine and feces, % of total counts injected): 7.7%
[4]; i.v., 8-hour period
  [125I] retained in the body versus mPEG(2,000)-α-L-tyrosine (in words): significantly greater percentage
[4]; i.v., 8 hour time course
  fold lower percentage of [125I] captured than mPEG(2,000)-α-L-tyrosine: 5 fold
[4]; i.v.
  radiolabeled compound excreted in the urine: ~95%
[1]
  adsorption half-life on hydroxyapatite: 19 min

## PEG(2,000)-α-methoxy-ω-L-tyrosine
[4]; 8 hour time course
  average % [125I] captured (urine and feces, % of total counts injected): 47.5%
[4]; i.v.
  radiolabeled compound excreted in the urine: greater than 95%
[1]; 0.1-1.0 mg/ml
  adsorption to hydroxyapatite (in words): did not show any adsorption

Reference: patent US8784849B2, “Hydroxyapatite-targeting poly(ethylene glycol) and related polymers” (Nektar Therapeutics, priority 2000, dated 2014)
